Measurements taken from patent US8933030B2, “Treatments for gastrointestinal disorders” (Ironwwod Pharmaceuticals, Inc., priority 2010, dated 2015).
Where a SMILES comes first, the peptide text is derived from it. Bridges are numbered along the chain shown (N, C = ends).

Tests used:
[1] = after oral administration at therapeutic dose levels; cited from earlier work
[2] = target: T1, guanylate cyclase-C (GC-C) (Homo sapiens, UniProt P25092); assay: cGMP response in T84 cells (GC-C agonist activity); assay type: cell-based; set-up: tested for guanylate cyclase-C (GC-C) agonist activity in T84 cells; endogenous in cells; host or cells: T84 cells
Procedure: Linaclotide and Cys1-IMD were tested for guanylate cyclase-C (GC-C) agonist activity in T84 cells as follows. In each well of a 96-well plate, approximately 200,000 T84 cells/well was first incubated with 1 mM 3-isobutyl-1-methylxanthine (IBMX) in 0.18 mL of Dulbecco's modified Eagle's medium (DMEM) for 10 minutes at 37° C. Each peptide was diluted to final concentrations ranging from 0.1 to 10,000 nM, and 0.02 mL of each dilution was added in duplicate to a 96-well plate containing the T84 cells, for a final volume of 0.20 mL per well. The peptide reactions were incubated for 30 min at 37° C. Following the incubation, the supernatants were removed and discarded and the cells were lysed with cold 0.1 M hydrochloric acid (HCl) for 30 min on ice. The cell debris was removed by centrifugation and the concentration of guanosine 3′,5′-cyclic monophosphate (cyclic GMP) in each lysate was determined using liquid chromatography with tandem mass spectrometry. The data were used to construct dose-response curves and calculate half-maximal effective concentration (EC50) values for each test article.

[3] = target: T1, guanylate cyclase-C (GC-C); assay: Competitive radioligand ([125I]-pSTa) binding assay on T84 cells; set-up: cell-surface GC-C receptors on human colonic epithelial (T84) cells; endogenous in cells; host or cells: T84 human colonic epithelial cells; settings: competition with 170 pM [125I]-pSTa for cell-surface GC-C receptors on T84 cells; read-out: inhibition constant (Ki), relative binding affinity
Procedure: The relative binding affinities of linaclotide and Cys1-IMD to the guanylate cyclase-C receptor (GC-C) were determined using a competitive-binding assay in which the peptides competed with a known GC-C agonist, porcine-derived heat-stable enterotoxin (pSTa), for binding sites on cell-surface GC-C receptors on human colonic epithelial (T84) cells. The pSTa was radiolabeled with ^125I to enable measurement of its receptor binding. The competitive-binding assay was performed by adding various concentrations of each peptide (0.1 to 3,000 nM) to 0.20 mL reaction mixtures containing Dulbecco's modified Eagle's medium (DMEM), 0.5% bovine serum albumin (BSA), 2.0×10^5 T84 cells, and 170 pM [^125I]-pSTa (200,000 cpm). The data were used to construct competitive radioligand-binding curves and determine the relative binding affinities of linaclotide and Cys1-IMD, as measured by their IC50 and Ki values.

T1 sequence (P25092 24-1073): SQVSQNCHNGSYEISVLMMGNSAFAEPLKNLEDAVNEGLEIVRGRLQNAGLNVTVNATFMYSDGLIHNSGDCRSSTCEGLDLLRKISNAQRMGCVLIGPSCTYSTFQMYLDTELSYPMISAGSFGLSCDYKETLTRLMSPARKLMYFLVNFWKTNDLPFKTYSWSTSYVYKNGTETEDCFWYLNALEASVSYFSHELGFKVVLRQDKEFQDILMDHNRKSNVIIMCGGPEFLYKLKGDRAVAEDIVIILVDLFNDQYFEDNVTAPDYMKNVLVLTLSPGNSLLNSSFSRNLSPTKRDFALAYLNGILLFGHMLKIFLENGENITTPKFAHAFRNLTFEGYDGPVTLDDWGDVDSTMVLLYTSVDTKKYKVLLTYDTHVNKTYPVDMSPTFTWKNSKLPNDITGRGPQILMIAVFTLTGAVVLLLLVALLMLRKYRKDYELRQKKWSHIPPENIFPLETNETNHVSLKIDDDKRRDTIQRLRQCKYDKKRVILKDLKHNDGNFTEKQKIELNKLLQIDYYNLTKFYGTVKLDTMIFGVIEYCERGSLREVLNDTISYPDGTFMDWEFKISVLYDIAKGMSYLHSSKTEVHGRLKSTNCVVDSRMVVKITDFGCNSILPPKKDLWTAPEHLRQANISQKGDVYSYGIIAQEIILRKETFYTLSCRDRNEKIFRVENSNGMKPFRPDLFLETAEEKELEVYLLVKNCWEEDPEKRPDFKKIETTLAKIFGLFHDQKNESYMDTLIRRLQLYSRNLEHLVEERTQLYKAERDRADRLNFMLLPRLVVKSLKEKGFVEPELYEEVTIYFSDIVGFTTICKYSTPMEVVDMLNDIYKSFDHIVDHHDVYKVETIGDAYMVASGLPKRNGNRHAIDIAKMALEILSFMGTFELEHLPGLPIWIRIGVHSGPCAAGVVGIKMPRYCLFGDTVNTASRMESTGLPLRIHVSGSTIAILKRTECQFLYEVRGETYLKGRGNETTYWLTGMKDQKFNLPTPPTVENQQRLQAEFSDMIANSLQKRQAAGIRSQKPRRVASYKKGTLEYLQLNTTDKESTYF

C[C@@H]1NC(=O)[C@@H]2CCCN2C(=O)[C@H](CC(N)=O)NC(=O)[C@@H]2CSSC[C@H](N)C(=O)N[C@H]3CSSC[C@H](NC1=O)C(=O)N[C@@H]([C@@H](C)O)C(=O)NCC(=O)N[C@H](C(=O)N[C@@H](Cc1ccc(O)cc1)C(=O)O)CSSC[C@H](NC(=O)[C@H](Cc1ccc(O)cc1)NC(=O)[C@H](CCC(=O)O)NC3=O)C(=O)N2 [Linaclotide, Cys Cys Glu Tyr Cys Cys Asn Pro Ala Cys Thr Gly Cys Tyr] (H-CCEYCCNPACTGCY-OH; disulfide 1-6, 2-10, 5-13 (inferred); N-terminus and C-terminus assumed)
levels of linaclotide seen systemically [1]: no detectable levels | EC50 [2]: 315 ± 105 nM | Ki [3]: 3.9 ± 1.6 nM
